One experiment relates to Cell Necrosis. Kind of experiment: Cell necrosis assay / cell viability assay (necrosis inhibitor activity). Format: cell-based.
For another experiment, the target named is T1, Human RIP1 kinase (Homo sapiens, UniProt Q13546).
T1 sequence (Q13546 1-671): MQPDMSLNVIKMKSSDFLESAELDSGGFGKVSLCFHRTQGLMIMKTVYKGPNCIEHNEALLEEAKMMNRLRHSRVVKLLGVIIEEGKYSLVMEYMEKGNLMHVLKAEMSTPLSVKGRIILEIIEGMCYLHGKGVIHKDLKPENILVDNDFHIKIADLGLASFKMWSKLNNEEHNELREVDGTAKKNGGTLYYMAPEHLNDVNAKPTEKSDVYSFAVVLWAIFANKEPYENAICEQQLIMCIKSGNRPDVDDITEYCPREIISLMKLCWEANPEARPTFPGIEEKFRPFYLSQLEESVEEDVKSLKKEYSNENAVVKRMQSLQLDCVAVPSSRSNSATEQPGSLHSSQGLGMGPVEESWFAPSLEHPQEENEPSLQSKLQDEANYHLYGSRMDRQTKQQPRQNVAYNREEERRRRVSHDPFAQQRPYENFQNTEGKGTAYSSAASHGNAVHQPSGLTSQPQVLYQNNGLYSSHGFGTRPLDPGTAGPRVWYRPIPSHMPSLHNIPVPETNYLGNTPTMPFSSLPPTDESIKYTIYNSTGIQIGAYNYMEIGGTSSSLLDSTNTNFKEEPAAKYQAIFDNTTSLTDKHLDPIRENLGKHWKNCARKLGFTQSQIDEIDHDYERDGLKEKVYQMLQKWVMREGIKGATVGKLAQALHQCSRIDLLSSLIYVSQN
Kind of experiment: Human RIP1 kinase assay. Conditions: representative, exemplary data. Format: biochemical.

The mark [1] stands for this setting: necrosis inhibitor activity, EC data for 14-191 extrapolated, read-out: EC50.
Where [2] appears, read: representative, exemplary data, read-out: Cell viability assay, EC50.
The mark [3] stands for this setting: necrosis inhibitor activity, compounds outside 14-191, read-out: EC50.

Like-named read-outs stand apart in the source and are kept apart here.

What is called EC50 is the concentration at which the effect is half-maximal. The IC50 is the midpoint of a concentration-inhibition curve. Regarding `O=C(N1CC[C@@H](Oc2ccccc2)C1)N1N=CCC1c1ccccc1` (single isomer, unassigned) [Compound 26B], the EC50 is 1000 to 10000 nM with Cell Necrosis (setting [1]) and > 1000 nM with Cell Necrosis (setting [2]). On Human RIP1 kinase, the IC50 was > 1000 nM.
On to `O=C(N1CCC1)N1N=CCC1c1ccccc1` (stereo not shown) [Compound 1, azetidin-1-yl(5-phenyl-4,5-dihydro-1H-pyrazol-1-yl)methanone], for which the EC50 was 1000 to 10000 nM with Cell Necrosis (setting [3]) and 1 to 10000 nM in the experiment with Cell Necrosis (setting [2]). Also, on Human RIP1 kinase, the IC50 is ~1000 nM.
As for `O=C(N1CC(Cc2cccc(F)c2)C1)N1N=CCC1c1ccccc1` (stereo not shown) [Compound 41, (3-(3-fluorobenzyl)azetidin-1-yl)(5-phenyl-4,5-dihydro-1H-pyrazol-1-yl)methanone], the values for the EC50 in the experiment on Cell Necrosis (setting [1]) and with Cell Necrosis (setting [2]) were 1 to 1000 nM and 1 to 100 nM, respectively. Further, the IC50 against Human RIP1 kinase was < 100 nM.
For `NC(=O)c1csc(OC2CN(C(=O)N3N=CCC3c3cc(F)cc(F)c3)C2)n1` (stereo not shown) [Compound 132, 2-((1-(5-(3,5-difluorophenyl)-4,5-dihydro-1H-pyrazole-1-carbonyl)azetidin-3-yl)oxy)thiazole-4-carboxamide] the same measures were 1 to 1000 nM, 1 to 100 nM and < 100 nM.
Take `O=C(N1CC(Oc2ccc(F)cc2F)C1)N1N=CCC1c1cc(F)cc(F)c1` (stereo not shown) [Compound 76, (3-(2,4-difluorophenoxy)azetidin-1-yl)(5-(3,5-difluorophenyl)-4,5-dihydro-1H-pyrazol-1-yl)methanone]: the EC50 in the experiment on Cell Necrosis (setting [1]) is 1 to 1000 nM; in the experiment with Cell Necrosis (setting [2]) it was 1 to 100 nM. Further, the IC50 on Human RIP1 kinase was < 100 nM.
For `O=C(N1CC[C@@H](Oc2ccccc2)C1)N1N=CCC1c1ccccc1` (single isomer, unassigned) [Compound 26A] the same measures were 1 to 1000 nM, 1 to 1000 nM and < 100 nM.
As for `O=C(N1CC(Oc2ccc(F)cc2F)C1)N1OCC[C@H]1c1ccccc1` [Compound 80, (S)-(3-(2,4-difluorophenoxy)azetidin-1-yl)(3-phenylisoxazolidin-2-yl)methanone], the figures for the EC50 in the experiment with Cell Necrosis (setting [1]) and in the experiment with Cell Necrosis (setting [2]) were 1 to 1000 nM and 1 to 100 nM, respectively. Also, at Human RIP1 kinase, the IC50 is < 100 nM.
On to `O=C(N1CCN(c2ncc(F)cn2)CC1)N1N=CCC1c1cccc(F)c1` (stereo not shown) [Compound 100, (5-(3-fluorophenyl)-4,5-dihydro-1H-pyrazol-1-yl)(4-(5-fluoropyrimidin-2-yl)piperazin-1-yl)methanone], for which the EC50 in the experiment on Cell Necrosis (setting [1]) is 1 to 1000 nM.
For the molecule `N#Cc1ccnc(O[C@@H]2CCN(C(=O)N3N=CC[C@H]3c3cc(F)cc(F)c3)C2)n1` [Compound 359, 2-(((R)-1-((S)-5-(3,5-difluorophenyl)-4,5-dihydro-1H-pyrazole-1-carbonyl)pyrrolidin-3-yl)oxy)pyrimidine-4-carbonitrile], the EC50 in the experiment on Cell Necrosis (setting [3]) lay in the range of 1 to 1000 nM.
On the same count and under the same terms, in the case of `N#Cc1ccc(C=C2CN(C(=O)N3N=CC[C@H]3c3cncc(F)c3)C2)c(F)n1` [Compound 324, (S)-6-fluoro-5-((1-(5-(5-fluoropyridin-3-yl)-4,5-dihydro-1H-pyrazole-1-carbonyl)azetidin-3-ylidene)methyl)picolinonitrile] it was 1 to 1000 nM; in that of `Cc1nnc(N2CCN(C(=O)N3N=CC[C@H]3c3cc(F)cc(F)c3)CC2)s1` [Compound 384, (S)-(5-(3,5-difluorophenyl)-4,5-dihydro-1H-pyrazol-1-yl)(4-(5-methyl-1,3,4-thiadiazol-2-yl)piperazin-1-yl)methanone], 1 to 1000 nM; in that of `N#Cc1cc(O[C@@H]2CCN(C(=O)N3N=CC[C@H]3c3cc(F)cc(F)c3)C2)ncn1` [Compound 360, 6-(((R)-1-((S)-5-(3,5-difluorophenyl)-4,5-dihydro-1H-pyrazole-1-carbonyl)pyrrolidin-3-yl)oxy)pyrimidine-4-carbonitrile], 1 to 1000 nM.
On the same count and under the same terms, in the case of `N#Cc1cc(F)cc(OC2CN(C(=O)N3N=CC[C@H]3c3cc(F)cc(F)c3)C2)c1` [Compound 237, (S)-3-((1-(5-(3,5-difluorophenyl)-4,5-dihydro-1H-pyrazole-1-carbonyl)azetidin-3-yl)oxy)-5-fluorobenzonitrile] it was 1 to 1000 nM.
With `O=C(NC1Cc2ccccc2C1)N1N=CCC1c1ccccc1` (stereo not shown) [Compound 14, N-(2,3-dihydro-H-inden-2-yl)-5-phenyl-4,5-dihydro-1H-pyrazole-1-carboxamide], the EC50 in the experiment with Cell Necrosis (setting [1]) and with Cell Necrosis (setting [2]) was 1 to 1000 nM throughout. At Human RIP1 kinase, the IC50 lay in the range of 100 to 1000 nM.
`N#Cc1nccc(N[C@@H]2CCN(C(=O)N3N=CC[C@H]3c3cc(F)cc(F)c3)C2)n1` [Compound 348]: the EC50 in the experiment on Cell Necrosis (setting [3]) lay in the range of 1 to 1000 nM.
With `O=C(N1CCN(c2cncnc2)CC1)N1N=CCC1c1ccccc1` (stereo not shown) [Compound 99, (5-phenyl-4,5-dihydro-1H-pyrazol-1-yl)(4-(pyrimidin-5-yl)piperazin-1-yl)methanone], the EC50 in the experiment with Cell Necrosis (setting [1]) is 1000 to 10000 nM.
In the case of `C[C@H]1CN(c2ncc(F)cn2)CCN1C(=O)N1N=CCC1c1ccccc1` (stereo in doubt) [Compound 111B, (S)-(4-(5-fluoropyrimidin-2-yl)-2-methylpiperazin-1-yl)(5-phenyl-4,5-dihydro-1H-pyrazol-1-yl)methanone], in the experiment on Cell Necrosis (setting [1]), the EC50 was 1000 to 10000 nM.
Still for that read-out and setting: the value for `Cc1csc(OC2CN(C(=O)N3N=CCC3c3cc(F)cc(F)c3)C2)n1` (stereo not shown) [Compound 175] was 1 to 1000 nM; that for `Cc1ccccc1C=C1CN(C(=O)N2N=CCC2c2ccccc2)C1` (stereo not shown) [Compound 38, (3-(2-methylbenzylidene)azetidin-1-yl)(5-phenyl-4,5-dihydro-1H-pyrazol-1-yl)methanone] was 1 to 1000 nM.
Take `O=C(N1CC(Oc2ccc3cn[nH]c3c2)C1)N1N=CC[C@H]1c1cc(F)cc(F)c1` [Compound 234, (S)(3-((1H-indazol-6-yl)oxy)azetidin-1-yl)(5-(3,5-difluorophenyl)-4,5-dihydro-1H-pyrazol-1-yl)methanone]: in the experiment on Cell Necrosis (setting [3]), the EC50 was in the range of 1 to 1000 nM.
For `O=C(N1CC(Oc2ccc(F)cc2)C1)N1N=CCC1c1ccccc1` (stereo not shown) [Compound 62, (3-(4-fluorophenoxy)azetidin-1-yl)(5-phenyl-4,5-dihydro-1H-pyrazol-1-yl)methanone], the EC50 with Cell Necrosis (setting [1]) is 1 to 1000 nM.
Take `O=C(N1CC[C@@H](Oc2ccccc2F)C1)N1N=CCC1c1ccccc1` (stereo partly drawn) [Compound 31, ((R)-3-(2-fluorophenoxy)pyrrolidin-1-yl)(5-phenyl-4,5-dihydro-1H-pyrazol-1-yl)methanone]: the EC50 with Cell Necrosis (setting [1]) is 1 to 1000 nM.
As for `O=C(N1CC(=Cc2ccc3oncc3c2)C1)N1N=CC[C@H]1c1cc(F)cc(F)c1` [Compound 318, (S)-(3-(benzo[d]isoxazol-5-ylmethylene)azetidin-1-yl)(5-(3,5-difluorophenyl)-4,5-dihydro-1H-pyrazol-1-yl)methanone], the EC50 with Cell Necrosis (setting [3]) lay within 1 to 1000 nM.
In the case of `O=C(N1CCc2ccccc2C1)N1N=CCC1c1ccccc1` (stereo not shown) [Compound 15, (3,4-dihydroisoquinolin-2(1H)-yl)(5-phenyl-4,5-dihydro-1H-pyrazol-1-yl)methanone], the EC50 with Cell Necrosis (setting [1]) was 1000 to 10000 nM.
As to `CNc1nccc(O[C@@H]2CCN(C(=O)N3N=CC[C@H]3c3cc(F)cc(F)c3)C2)n1` [Compound 370], in the experiment with Cell Necrosis (setting [3]), the EC50 was in the range of 1 to 1000 nM.
Same read-out and setting: the value for `NC(=O)c1cnc2ccc(O[C@@H]3CCN(C(=O)N4N=CC[C@H]4c4cc(F)cc(F)c4)C3)nn12` [Compound 241, 6-(((R)-1-((S)-5-(3,5-difluorophenyl)-4,5-dihydro-1H-pyrazole-1-carbonyl)pyrrolidin-3-yl)oxy)imidazo[1,2-b]pyridazine-3-carboxamide] was 1 to 1000 nM.
For `O=C(N1CC(Oc2ccc3nc[nH]c3c2)C1)N1N=CCC1c1cc(F)cc(F)c1` (stereo not shown) [Compound 178], the concentration for a half-maximal effect (EC50) with Cell Necrosis (setting [1]) is 1 to 1000 nM.

The values above are taken from patent US12662469B2 (SIRONAX LTD, priority 2018, dated 2026).
